# Experimental data as given in patent US10954300B2, “Use of pentoxifylline with immune checkpoint-blockade therapies for the treatment of melanoma” (THE TRUSTEES OF COLUMBIA UNIVERSITY IN THE CITY OF NEW YORK, priority 2015, dated 2021).
# Entries after “also recorded” stand apart in the source; their conditions may differ.
# Key:
# B16F1 melanoma cells [1] = assay: Established B16F1 melanoma, PTXF with or without checkpoint-blockade mAb; format: in vivo, C57Bl/6 WT mice; details: for tumor size / tumor growth (growth curves): PTXF 50 mg/kg and/or anti-PD-1 mAb from D5-D6, vs control
# Protocol: Pentoxifylline (Sigma) powder was dissolved in PBS1X and sterile filtered prior to each injection. For the early regimen of pentoxifylline treatment, mice were injected intra-peritoneally with 50 mg/kg pentoxifylline diluted in 100 μL PBS1X at days 0, 1, 2, 3, 5, 7, and 9. For the “curative” regimen, mice were treated daily from day 5-6 (when the tumor was visible and palpable) to day 11, following the same methods. IT-603 was reconstituted in DMSO and stored at −80° C. It then was diluted in PBS1X and sterile-filtered prior to each injection. Mice were injected intra-peritoneally with 10 mg/kg […] diluted in 100 μL PBS1X at days 0, 1, 2, 3, 5, 7 and 9.
# Anti-PD-1 antibody (clone RMP1-14, BioXCell®) or isotype control (polyclonal IgG, BioXCell®) is available commercially. The antibodies were aliquoted in sterile PBS1X and stored at −80° C. until use. Mice are injected intra-peritoneally with […] of anti-PD-1 or isotype antibody, diluted in 100 μL sterile PBS1X at days 6, 8 and 10. All injections are performed using a 27.5 gauge needle, following the standard precautions.
# 5×10^4 B16F1 or 5×10^5 CT-26 or BRAF^CAPten^−/− cells diluted in sterile PBS1X were injected subcutaneously into the shaved flank of each mouse. For metastasis experiments, 2.5×10^4 B16F10 cells were injected intravenously in the tail vein. […] Anti-PD-1 (RMP1-14), anti-PD-L1 (10F.9G2) and anti-CD8 (YTS.169-4) mAbs were obtained from BioXCell. Rat IgG isotype control was from R&D Systems. […] In FIG. 11A-11G, Balb/c mice harboring CT-26 tumors received a suboptimal dose of 100 μg of anti-PD-1.
# Tumor growth was monitored daily.
# B16F1 melanoma cells [2] = assay: qPCR on total tumor RNA at D16, early PTXF treatment; format: in vivo, C57Bl/6J mice
# Excerpt: Total RNA was extracted using a Qiagen Rneasy Mini Kit with DNase treatment. For qPCR, RNA was reverse transcribed by Superscript III (Invitrogen). cDNAs were used for PCR with SYBR Green reagents (Quanta Biosciences, Gaithersburg, Md.) on a C1000 Touch thermal cycler (Bio Rad, Hercules, Calif.). The data was normalized to GAPDH expression.
structure (smiles),measurement,setting,value
"CC(=O)CCCCn1c(=O)c2c(ncn2C)n(C)c1=O [PTXF, 1-(5-oxohexyl)-3,7-dimethylxanthine]",tumor size / tumor growth (growth curves),B16F1 melanoma cells [1],did not change the growth curves; also recorded: did not significantly reduce tumor size
same,tumor size / tumor growth (growth curves),B16F1 melanoma cells [1]; listed as pentoxifylline,did not significantly reduce tumor size
same,"tumor growth, anti-PD-L1 instead of anti-PD-1",B16F1 melanoma cells [1]; PTXF and/or anti-PD-L1 mAb,did not affect tumor growth
same,inflammatory response (activated T-cell markers and cytokines) in total tumors,B16F1 melanoma cells [2],dramatic enhancement of the inflammatory response
same,increase of Ccl22 mRNA,B16F1 melanoma cells [2]; minor and non-significant,1.2 ×
